According to US20220088011A1, “THERAPEUTIC AGENT FOR A TUMOR COMPRISING AN IDO INHIBITOR ADMINISTERED IN COMBINATION WITH AN ANTIBODY” (KYOWA KIRIN CO., LTD., priority 2015, published 2022):

Assays:
A431 cells = experiment: ADCC of cetuximab against A431 cells by human PBMCs pre-incubated in conditioned medium; type: cell-based; conditions: human PBMCs pre-incubated 7 days in conditioned medium of KATO-III + IFN-γ + 100 nmol/L compound
Description: (§1) KATO-III cells (1.25×10^6 cells) were treated with 25 ng/mL recombinant human IFN-γ. […] Three days later, cells and supernatants were separated by centrifugation. The supernatants were used as conditioned medium. The conditioned medium was used for incubation of human PBMCs or NK cells (section 2.4.2), and measurement of Kyn and Trp (section 2.4.4).
(§2) NK cells were isolated from human PBMCs using NK isolation kit (Miltenyi Biotec, Cat. No. 130-092-657) and autoMACS instrument. Human PBMCs or NK cells were cultured in the conditioned medium (section 2.4.1) in a CO2 incubator. After 7 days, cells were harvested and counted, and used as effector cells. PBMCs and NK cells used as effector cells were suspended in the assay medium (RPMI1640 containing 10 vol % heat-inactivated fetal bovine serum and 1 vol % Penicillin-Streptomycin) to 5×10^6 cells/mL (PBMCs) or 4×10^5 cells/mL (NK cells). TL-Om1 cells, HH cells, SK-BR-3 cells, Raji cells or A431 cells (1×10^6 cells/each cell line) were labeled with 1.85 MBq of Na2^51CrO4 (PerkinElmer) for over 1 hour at 37° C. in a CO2 incubator. The cells were washed 3 times with assay medium. The radiolabeled cells used as target cells were suspended in 5 mL of the assay medium to 2×10^5 cells/mL. […]

TL-Om1 cells [1] = experiment: ADCC of mogamulizumab against TL-Om1 cells by human PBMCs pre-incubated in medium containing the compound itself; type: cell-based; conditions: human PBMCs pre-incubated in medium containing 100 nmol/L compound for 7 days
Description: NK cells were isolated from human PBMCs using NK isolation kit (Miltenyi Biotec, Cat. No. 130-092-657) and autoMACS instrument. Human PBMCs or NK cells were cultured in the conditioned medium (section 2.4.1) in a CO2 incubator. After 7 days, cells were harvested and counted, and used as effector cells. PBMCs and NK cells used as effector cells were suspended in the assay medium (RPMI1640 containing 10 vol % heat-inactivated fetal bovine serum and 1 vol % Penicillin-Streptomycin) to 5×10^6 cells/mL (PBMCs) or 4×10^5 cells/mL (NK cells). TL-Om1 cells, HH cells, SK-BR-3 cells, Raji cells or A431 cells (1×10^6 cells/each cell line) were labeled with 1.85 MBq of Na2^51CrO4 (PerkinElmer) for over 1 hour at 37° C. in a CO2 incubator. The cells were washed 3 times with assay medium. The radiolabeled cells used as target cells were suspended in 5 mL of the assay medium to 2×10^5 cells/mL. […] Fifty μL of the target cells (1×10^4 cells) were plated into 96-well round bottomed culture plates and mixed with 50 μL of antibody dilutions prepared as described above and 50 μL of the effector cells (2.5×10^5 cells). The culture plates were briefly centrifuged at 4° C. and incubated at 37° C. in a CO2 incubator for about 4 hours. […] The radioactivity was counted with a microplate scintillation counter (TopCount NXT, PerkinElmer).

SKOV3 cells = experiment: Cytotoxicity of PBMCs against SKOV3 cells with or without Antibody C1 (51Cr release); type: cell-based, human; conditions: PBMCs pre-incubated 7 days in conditioned medium of SKOV3 + 50 ng/mL IFNγ + 100 nmol/L compound, vs conditioned medium DMSO
Description: The supernatants of each culture were used as the conditioned medium for pre-incubation of PBMCs.
SKOV3 cells were detached from culture flasks by TrypLE Express (GIBCO). The live cells were adjusted to 1.0×10^6 cells by the ADCC assay medium [RPMI1640 without phenol red (GIBCO) with 10 vol % of dialyzed and heat-inactivated FCS(GIBCO)]. Then, the cells were labeled with approx. 3.7 MBq of Na2^51CrO4 (PerkinElmer) for over 1 hour at 37° C. in a CO2 incubator. The cells were washed three times, and adjusted to 2.0×10^5 cells/mL (1×10^4 cells/50 μL) as the target cells using the ADCC assay medium.
Human PBMCs were cultured in 25 mL of the conditioned medium for 7 days. […]
The cytotoxicity was quantified by measurement of radioactivity in the supernatant of each assay well. […]
Total, T spo, M, or Assay sample was defined and prepared as follows. • Total: Target cell total radioactivity control. This sample was prepared by mixing 50 μL of target cell, 15 μL of detergent (10×Lysis Solution, Promega), and 85 μL of the ADCC assay medium. • T spo: Target cell spontaneous radioactivity control. […]
Each sample was prepared in triplicate. […] The radioactivity (cpm) was counted with a microplate scintillation counter (TopCount NXT, PerkinElmer).
The cytotoxicity (%) was calculated by the following equations using the cpm of each well. […]

TL-Om1 cells [2] = experiment: ADCC of mogamulizumab against TL-Om1 cells by purified human NK cells pre-incubated in conditioned medium; type: cell-based
Description: as §1
(§3) NK cells were isolated from human PBMCs using NK isolation kit (Miltenyi Biotec, Cat. No. 130-092-657) and autoMACS instrument. Human PBMCs or NK cells were cultured in the conditioned medium (section 2.4.1) in a CO2 incubator. After 7 days, cells were harvested and counted, and used as effector cells. […] The radioactivity was counted with a microplate scintillation counter (TopCount NXT, PerkinElmer).
(§4) The percentage of cytotoxicity was calculated according to the following formula: […]
(§5) E is the experimental released radioactivity (cpm), S is the mean of spontaneous released radioactivity (cpm) by adding the assay medium instead of effector cells and antibody, and M is the mean of maximum released radioactivity (cpm) by adding 10 vol % Triton™ X-100 (Sigma-Aldrich, Cat. No. T9284-100ML) instead of effector cells and antibody. […]

TL-Om1 cells [3] = experiment: ADCC of mogamulizumab against TL-Om1 cells by human PBMCs pre-incubated in conditioned medium; type: cell-based
Description: as §1, §3, §4, §5

SK-BR-3 cells = experiment: ADCC of trastuzumab against SK-BR-3 cells by human PBMCs pre-incubated in conditioned medium; type: cell-based; conditions: human PBMCs pre-incubated 7 days in conditioned medium of KATO-III + IFN-γ + 100 nmol/L compound
Description: as §1, §2

Raji cells = experiment: ADCC of rituximab against Raji cells by human PBMCs pre-incubated in conditioned medium; type: cell-based; conditions: human PBMCs pre-incubated 7 days in conditioned medium of KATO-III + IFN-γ + 100 nmol/L compound
Description: as §1, §2

HH cells = experiment: ADCC of mogamulizumab against HH cells by human PBMCs pre-incubated in conditioned medium; type: cell-based
Description: as §1, §3, §4, §5

TL-Om1 cells [4] = experiment: ADCC of mogamulizumab against TL-Om1 cells by human PBMCs pre-incubated in conditioned medium of shRNA KATO-III cells; type: cell-based; conditions: PBMCs pre-incubated in conditioned medium 3 (parent + IFN-γ) or 4 (NegaCTRL shRNA + IFN-γ) compared with conditioned medium 1 or 2
Description: Parental KATO-III or KATO-III cells stably expressing IDO1 shRNA or NegaCTRL shRNA (1.25×10^6 cells) were treated with 25 ng/mL recombinant human IFN-γ. Cells were incubated in a CO2 incubator. Three days later, cells and supernatants were separated by centrifugation. The supernatants were used as conditioned medium. The conditioned medium was used for incubation of human PBMCs (Section 7.4.5), and measurement of Kyn and Trp (Section 7.4.7).
Human PBMCs were cultured in each conditioned medium (Section 7.4.4) in a CO2 incubator. After 7 days, cells were harvested and counted, and used as effector cells. PBMCs used as effector cells were suspended in the assay medium (RPMI1640 containing 10 vol % heat-inactivated fetal bovine serum and 1 vol % Penicillin-Streptomycin) to 5×10^6 cells/mL. […] The radioactivity was counted with a microplate scintillation counter (TopCount NXT, PerkinElmer).
as §4, §5

Molecule: NS(=O)(=O)NCCNc1nonc1C(=NO)Nc1ccc(F)c(Br)c1 [Compound B1, 4-({2-[(aminosulfonyl)amino]ethyl}amino)-N-(3-bromo-4-fluorophenyl)-N′-hydroxy-1,2,5-oxadiazole-3-carboximidamide]
- effect on the attenuation of ADCC of cetuximab against A431 cells (A431 cells): canceled the attenuation
- effect of the compound itself on ADCC of mogamulizumab (TL-Om1 cells [1]): did not influence
- cytotoxicity without Antibody C1 (natural killing activity) of PBMCs against SKOV3 cells (SKOV3 cells): higher
- cytotoxicity of PBMCs against SKOV3 cells in the presence of Antibody C1 (SKOV3 cells; Antibody C1 0.033-333 ng/mL): higher
- effect on the attenuation of ADCC of mogamulizumab by NK cells (TL-Om1 cells [2]; purified human NK cells pre-incubated in conditioned medium of KATO-III + IFN-γ + 100 nmol/L compound, TL-Om1 target cells): canceled
- effect on the attenuation of ADCC of mogamulizumab against TL-Om1 cells (TL-Om1 cells [3]; human PBMCs (donor 1, donor 2) pre-incubated 7 days in conditioned medium of KATO-III + IFN-γ + 100 nmol/L compound): canceled the attenuation
- effect on the attenuation of ADCC of trastuzumab against SK-BR-3 cells (SK-BR-3 cells): canceled the attenuation
- effect on the attenuation of ADCC of rituximab against Raji cells (Raji cells): canceled the attenuation
- effect on the attenuation of ADCC of mogamulizumab against HH cells (HH cells; human PBMCs pre-incubated 7 days in conditioned medium of KATO-III + IFN-γ + 100 nmol/L compound): canceled the attenuation

B1: mogamulizumab: humanized anti CCR4 monoclonal antibody (antibody, chains of the INN, looked up, V domains shown)
VH: EVQLVESGGDLVQPGRSLRLSCAASGFIFSNYGMSWVRQAPGKGLEWVATISSASTYSYYPDSVKGRFTISRDNAKNSLYLQMNSLRVEDTALYYCGRHSDGNFAFGYWGQGTLVTVSS
VL: DVLMTQSPLSLPVTPGEPASISCRSSRNIVHINGDTYLEWYLQKPGQSPQLLIYKVSNRFSGVPDRFSGSGSGTDFTLKISRVEAEDVGVYYCFQGSLLPWTFGQGTKVEIK
- ADCC by NK cells against TL-Om1 cells (TL-Om1 cells [2]; purified NK cells pre-incubated in conditioned medium 2 (KATO-III + IFN-γ)): attenuated
- ADCC against TL-Om1 cells (TL-Om1 cells [3]; PBMCs (donor 1, donor 2) pre-incubated in conditioned medium 2 (KATO-III + IFN-γ) compared with conditioned medium 1): attenuated
- ADCC against TL-Om1 cells (TL-Om1 cells [4]): attenuated
- ADCC against HH cells (HH cells; PBMCs pre-incubated in conditioned medium 2 (KATO-III + IFN-γ)): attenuated
